# Reference: patent US5393897A, “Isolation and structure of spongistatins 5,7,8 and 9” (Arizona Board of Regents acting on behalf of Arizona State …, priority 1993, dated 1995)
# Where two headings read alike, the source gives them in different places.
# Key:
# Type in all cases: cell-based
# MCF7/ADR-RES = assay: NCI cell line panel; conditions: Homo sapiens, Breast Cancer; for GI50: read-out: Log10 GI50 (converted)
# Text: (§1) Only two hundred years ago, many diseases ravaged humankind. Many of these diseases now have been controlled or eradicated. In the development of the means to treat or control these diseases, work with the appropriate common experimental animals was of critical importance. With the various types of cancers, and with the HIV virus, such work is presently ongoing. The research for the treatment of various types of cancer is coordinated in the United States by the National Cancer Institute (NCI). NCI, as a government entity, has been charged with assisting anti-cancer research. To establish whether a substance has anti-cancer activity, NCI has established a variety of protocols, one of which involves testing the candidate substance against a cell line panel containing 60 human tumor cell lines. This protocol has been verified and is generally accepted throughout the scientific community. This protocol and the established statistical means of evaluating the results obtained therefrom have been fully described in the literature. See Principles & Practice of Oncology PPO Updates, Volume 3, Number 10, October 1989, by Michael R. Boyd, M.D., Ph.D., for an in depth description of the test protocol. The statistical analysis is explained in "Display and Analysis of Patterns of Differential Activity of Drugs Against Human Tumor Cell Lines: Development of Means Graph and COMPARE Algorithm" Journal of the National Cancer Institute Reports Vol. 81, No. 14, Pg. 1088, Jul. 14, 1989, by K. D. Paull et al. Both of these references are incorporated herein by this reference thereto. The effectiveness and validity of the NCI in vitro protocol continues to be verified.
# LOX IMVI = assay: NCI cell line panel; conditions: Homo sapiens, Melanoma
# Text: as §1
# SNB-75 = assay: NCI cell line panel; conditions: Homo sapiens, CNS Cancer, read-out: Log10 GI50 (converted)
# Text: as §1
# HS 578T = assay: NCI cell line panel; conditions: Homo sapiens; for GI50: read-out: Log10 GI50 (converted)
# Text: as §1
# CAKI-1 = assay: NCI cell line panel; conditions: Homo sapiens, Renal Cancer, read-out: Log10 GI50 (converted)
# Text: as §1
# PC-3 = assay: NCI cell line panel; conditions: Homo sapiens, Prostate Cancer; for GI50: read-out: Log10 GI50 (converted); for IC (TGI): read-out: Log10 TGI (converted)
# Text: as §1
# DU-145 = assay: NCI cell line panel; conditions: Homo sapiens, Prostate Cancer, read-out: Log10 GI50 (converted)
# Text: as §1
# OVCAR-8 = assay: NCI cell line panel; conditions: Homo sapiens, Ovarian Cancer, read-out: Log10 GI50 (converted)
# Text: as §1
# A549/ATCC = assay: NCI cell line panel; conditions: Homo sapiens, Non-Small Cell Lung Cancer; for GI50: read-out: Log10 GI50 (converted); for IC (TGI): read-out: Log10 TGI (converted)
# Text: as §1
# SK-OV-3 = assay: NCI cell line panel; conditions: Homo sapiens
# Text: as §1
# NCI-H322M = assay: NCI cell line panel; conditions: Homo sapiens, Non-Small Cell Lung Cancer; for GI50: read-out: Log10 GI50 (converted)
# Text: as §1
# T-47D = assay: NCI cell line panel; conditions: Homo sapiens, T47D, Breast Cancer
# Text: as §1
# HCT-15 = assay: NCI cell line panel; conditions: Homo sapiens, Colon Cancer, read-out: Log10 GI50 (converted)
# Text: as §1
# HCC-2998 = assay: NCI cell line panel; conditions: Homo sapiens, Colon Cancer, read-out: Log10 GI50 (converted)
# Text: as §1
# UO-31 = assay: NCI cell line panel; conditions: Homo sapiens
# Text: as §1
# MOLT-4 = assay: NCI cell line panel; conditions: Homo sapiens, Leukemia, read-out: Log10 GI50 (converted)
# Text: as §1
# NCI-H23 = assay: NCI cell line panel; conditions: Homo sapiens, Non-Small Cell Lung Cancer, read-out: Log10 GI50 (converted)
# Text: as §1
# COLO 205 = assay: NCI cell line panel; conditions: Homo sapiens; for LC50 (50% lethal concentration): COLO 205, read-out: Log10 LC50 (converted); for IC (TGI): read-out: Log10 TGI (converted)
# Text: as §1
# K-562 = assay: NCI cell line panel; conditions: Homo sapiens, K562; Leukemia; read-out: Log10 GI50 (converted)
# Text: as §1
# HL-60(TB) = assay: NCI cell line panel; conditions: Homo sapiens, Leukemia, read-out: Log10 GI50 (converted)
# Text: as §1
# SN12C = assay: NCI cell line panel; conditions: Homo sapiens, Renal Cancer; for GI50: read-out: Log10 GI50 (converted)
# Text: as §1
# RXF-393 = assay: NCI cell line panel; conditions: Homo sapiens, Renal Cancer; for GI50: read-out: Log10 GI50 (converted)
# Text: as §1
# MCF7 = assay: NCI cell line panel; conditions: Homo sapiens, Breast Cancer; for IC (TGI): read-out: Log10 TGI (converted)
# Text: as §1
# U251 = assay: NCI cell line panel; conditions: Homo sapiens, U-251; CNS Cancer; read-out: Log10 GI50 (converted)
# Text: as §1
# EKVX = assay: NCI cell line panel; conditions: Homo sapiens; for GI50: read-out: Log10 GI50 (converted)
# Text: as §1
# SF-539 = assay: NCI cell line panel; conditions: Homo sapiens, CNS Cancer, read-out: Log10 GI50 (converted)
# Text: as §1
# HOP-62 = assay: NCI cell line panel; conditions: Homo sapiens
# Text: as §1
# [1] = tested on: 60 human tumor cell lines; assay: NCI in vitro primary screen, panel of 60 human tumor cell lines; conditions: for Compare Correlation Coefficient: TGI-centered mean graph profiles, spongistatin 1 as seed; for correlation of mean-graph fingerprint with microtubule-interactive antimitotics: pattern-recognition analyses, data not shown; for negative log molar TGI50: various human cancer cell lines
# Text: as §1
# ^a All compounds were tested in quadruplicate at five different con-
# entire panel of 60 human tumor cell lines comprising the NCI
# ^c Correlation coefficients from the Compare pattern-recognition
# algorithm were calculated by computer using the TGI-centered
# mean graph profiles of differential cellular sensitivities to 1, and
# 5. The TGI mean graph profile of 1 was used as the benchmark or
# "seed" for all of the comparisons.
# [2] = read-out: Log10 TGI (converted)
# [3] = read-out: Log10 GI50 (converted)
# [4] = Homo sapiens, NCI 60 cell line panel, read-out: panel mean GI50
# [5] = Homo sapiens, panel mean graph midpoint, read-out: MG-MID, Log10 GI50 (converted)
# [6] = Homo sapiens, quadruplicate, five concentrations, standard errors averaged less than 15% of means, read-out: Mean Panel GI50
smiles,measurement,setting,value
C=C(Cl)/C=C/C(O)CC(=C)CC1OC2C(C)C(OC(=O)CC3CC(O)CC4(CC(C)(O)CC(C=C5COC(C(C)C(=O)CC6CC(OC)CC7(CC(O)CC(/C=C\CCCC8OC(O)(CC(O)C8C)C2O)O7)O6)C5C)O4)O3)C1O (stereo not shown) [spongistatin 5],GI50,MCF7/ADR-RES,912 pM
same,IC (TGI),LOX IMVI; [2],11000 pM
same,GI50,SNB-75,12 pM
same,GI50,HS 578T; Breast Cancer,437 pM
same,GI50,CAKI-1,57.5 pM
same,GI50,PC-3,15.1 pM
same,IC (TGI),PC-3,100000 pM
same,GI50,DU-145,24 pM
same,GI50,OVCAR-8,257 pM
same,GI50,A549/ATCC,20.9 pM
same,IC (TGI),A549/ATCC,75900 pM
same,GI50,"SK-OV-3; SK-OV-3, Ovarian Cancer, read-out: Log10 GI50 (converted)",191 pM
same,GI50,NCI-H322M,89.1 pM
same,GI50,T-47D; [3],100000 pM
same,GI50,HCT-15,63.1 pM
same,GI50,HCC-2998,63.1 pM
same,GI50,"UO-31; UO-31, read-out: Log10 GI50 (converted)",427 pM
same,GI50,MOLT-4,37.2 pM
same,GI50,NCI-H23,34.7 pM
same,LC50 (50% lethal concentration),COLO 205,7940 pM
same,GI50,"COLO 205; COLO 205, Colon Cancer, read-out: Log10 GI50 (converted)",12.9 pM
same,IC (TGI),"COLO 205; COLO 205, Colon Cancer",871 pM
same,GI50,K-562,100 pM
same,GI50,HL-60(TB),12.9 pM
same,GI50,SN12C,60.3 pM
same,GI50,RXF-393,41.7 pM
same,IC (TGI),MCF7,39800 pM
same,GI50,U251,61.7 pM
same,GI50,EKVX,182 pM
same,GI50,SF-539,22.9 pM
same,GI50,"HOP-62; HOP-62, Non-Small Cell Lung Cancer, read-out: Log10 GI50 (converted)",151 pM
same,potency and specificity against NCI human cancer cell lines,[1],remarkably potent and specific
same,LC50,"[1]; Homo sapiens, read-out: MG-MID, Log10 LC50 (converted)",79400 pM
same,GI50,[1]; [4],100 pM
same,GI50,[1]; [5],63.1 pM
same,IC (TGI),"[1]; Homo sapiens, panel mean graph midpoint, read-out: MG-MID, Log10 TGI (converted)",13800 pM
same,GI50,[1]; [6],123 pM
same,Compare Correlation Coefficient,[1],0.92
same,correlation of mean-graph fingerprint with microtubule-interactive antimitotics,[1],closely correlated
same,negative log molar TGI50,[1],approximately ten
C=C/C=C/C(O)CC(=C)CC1OC2C(C)C(OC(=O)CC3CC(O)CC4(CC(C)(O)CC(C=C5COC(C(C)C(=O)CC6CC(OC)CC7(CC(O)CC(/C=C\CCCC8OC(O)(CC(O)C8C)C2O)O7)O6)C5C)O4)O3)C1O (stereo not shown) [spongistatin 7],GI50,MCF7/ADR-RES,77600 pM
same,IC (TGI),MCF7/ADR-RES; [2],100000 pM
same,GI50,LOX IMVI; [3],468 pM
same,GI50,SNB-75,372 pM
same,IC (TGI),"HS 578T; Breast Cancer, read-out: Log10 TGI (converted)",100000 pM
same,GI50,HS 578T,1290 pM
same,GI50,CAKI-1,12000 pM
same,GI50,PC-3,372 pM
same,IC (TGI),PC-3,52500 pM
same,GI50,DU-145,1580 pM
same,GI50,OVCAR-8,3980 pM
same,GI50,A549/ATCC,3470 pM
same,IC (TGI),A549/ATCC,100000 pM
same,GI50,"SK-OV-3; SK-OV-3, read-out: Log10 GI50 (converted)",1000 pM
same,GI50,NCI-H322M,3240 pM
same,IC (TGI),NCI-H322M; [2],100000 pM
same,IC (TGI),T-47D; [2],100000 pM
same,GI50,HCT-15,6170 pM
same,GI50,HCC-2998,1410 pM
same,GI50,"UO-31; UO-31, Renal Cancer, read-out: Log10 GI50 (converted)",24000 pM
same,GI50,MOLT-4,575 pM
same,GI50,NCI-H23,708 pM
same,GI50,"COLO 205; COLO 205, read-out: Log10 GI50 (converted)",331 pM
same,LC50 (50% lethal concentration),COLO 205,75900 pM
same,IC (TGI),"COLO 205; COLO 205, Colon Cancer",3800 pM
same,GI50,K-562,151 pM
same,GI50,HL-60(TB),79.4 pM
same,GI50,SN12C,2190 pM
same,IC (TGI),SN12C; [2],100000 pM
same,GI50,RXF-393,2690 pM
same,IC (TGI),RXF-393; [2],100000 pM
same,GI50,MCF7; [3],170 pM
same,IC (TGI),MCF7,100000 pM
same,GI50,U251,759 pM
same,GI50,EKVX; Non-Small Cell Lung Cancer,41700 pM
same,IC (TGI),"EKVX; Non-Small Cell Lung Cancer, read-out: Log10 TGI (converted)",100000 pM
same,GI50,SF-539,490 pM
same,GI50,"HOP-62; HOP-62, read-out: Log10 GI50 (converted)",1000 pM
same,potency and specificity against NCI human cancer cell lines,[1],remarkably potent and specific
same,GI50,[1]; [4],100 pM
same,GI50,[1]; [5],1170 pM
same,GI50,[1]; [6],1010 pM
same,Compare Correlation Coefficient,[1],0.81
same,correlation of mean-graph fingerprint with microtubule-interactive antimitotics,[1],closely correlated
same,negative log molar TGI50,[1],approximately ten
